Test results published in patent US20120178765A1, “NOVEL GLUCOKINASE ACTIVATORS AND PROCESSES FOR THE PREPARATION THEREOF” (YUHAN CORPORATION, priority 2009, published 2012).
Structures can show the parent of a compound that is named as a salt.

These compounds were tested against T1, Glucokinase (Homo sapiens, UniProt P35557) (assay: Glucokinase activation assay (NADPH absorbance at 340 nm)). Conditions: glucokinase (ProteinOne Inc.), 5 mM D(+)-glucose, 24° C., 90 minutes.
T1 construct: purchased ProteinOne Inc
T1 sequence (P35557 1-465): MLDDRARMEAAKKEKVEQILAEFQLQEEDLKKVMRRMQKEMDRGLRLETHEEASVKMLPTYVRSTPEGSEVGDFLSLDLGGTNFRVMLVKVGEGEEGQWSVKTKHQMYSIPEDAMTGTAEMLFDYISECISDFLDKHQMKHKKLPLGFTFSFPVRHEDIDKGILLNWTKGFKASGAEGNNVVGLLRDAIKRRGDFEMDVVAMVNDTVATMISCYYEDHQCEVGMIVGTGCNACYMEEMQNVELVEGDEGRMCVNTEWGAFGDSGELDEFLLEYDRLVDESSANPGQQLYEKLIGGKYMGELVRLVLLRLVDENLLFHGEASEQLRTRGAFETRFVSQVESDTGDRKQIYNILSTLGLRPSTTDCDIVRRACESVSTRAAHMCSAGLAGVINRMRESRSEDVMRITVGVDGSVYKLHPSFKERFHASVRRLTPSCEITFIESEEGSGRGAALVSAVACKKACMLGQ
Assay type: biochemical
Summary of the method: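 Glucokinase (100 ng/uL) coupled to G6PDH in 25 mM HEPES pH 7 with 5 mM D(+)-glucose, 1 mM ATP, 1 mM NADP; compounds added.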

Compound | EC50
3-{2-[3-(3-phenyl-ureido)phenyl]ethyl}-5-(2-methoxy-(1S)-methyl-ethoxy)-N-(thiazol-2-yl)-benzamide [Example 130] | 227 nM
CC(C)COc1cc(/C=C/c2cc(F)ccc2F)cc(C(=O)Nc2nccs2)c1 [Example 71, 3-[trans-2-(2,5-difluorophenyl)vinyl]-5-isobutoxy-N-(thiazol-2-yl)-benzamide] | 84.8 nM
3-[2-(2,3-difluorophenyl)ethyl]-5-(2-methoxy-(1S)-methyl-ethoxy)-N-(1-methyl-1H-pyrazol-3-yl)-benzamide [Example 95] | 418 nM
3-[2-(2,4-difluorophenyl)ethyl]-5-(2-methoxy-(1S)-methyl-ethoxy)-N-(thiazol-2-yl)-benzamide [Example 85] | 9.5 nM
3-[2-(4-fluorophenyl)ethyl]-5-(2-methoxy-(1S)-methyl-ethoxy)-N-(pyrazin-2-yl)-benz amide [Example 108] | 465 nM
3-[2-(3,5-dimethoxyphenyl)ethyl]-5-(2-methoxy-(1S)-methyl-ethoxy)-N-(1-methyl-1H-pyrazol-3-yl)-benzamide [Example 99] | 117 nM
3-[2-(2-acetylaminophenyl)ethyl]-5-(2-methoxy-(1S)-methyl-ethoxy)-N-(thiazol-2-yl)benzamide [Example 116] | 318 nM
3-[2-(2-methoxyphenyl)ethyl]-5-(2-methoxy-(1S)-methyl-ethoxy)-N-(thiazol-2-yl)-benzamide [Example 89] | 28.4 nM
3-[2-(3-aminophenyl)ethyl]-5-(2-methoxy-(1S)-methyl-ethoxy)-N-(thiazol-2-yl)-benzamide [Example 91] | 68.9 nM
3-[2-(4-acetylaminophenyl)ethyl]-5-(2-methoxy-(1S)-methyl-ethoxy)-N-(thiazol-2-yl)-benzamide [Example 132] | 354 nM
COC[C@H](C)Oc1cc(/C=C/c2cc(OC)cc(OC)c2)cc(C(=O)Nc2ccn(C)n2)c1 (stereo in doubt) [Example 40, 3-[trans-2-(3,5-dimethoxyphenyl)vinyl]-5-(2-methoxy-(1S)-methyl-ethoxy)-N-(1-methyl-1H-pyrazol-3-yl)-benzamide] | 174 nM
3-[2-(2,3-dimethoxyphenyl)ethyl]-5-(2-methoxy-(1S)-methyl-ethoxy)-N-(thiazol-2-yl)-benzamide [Example 90] | 322 nM
3-{2-[3-(2-(thiophen-2-yl)acetylamino)phenyl]ethyl}-5-(2-methoxy-(1S)-methyl-ethoxy)-N-(thiazol-2-yl)-benzamide [Example 129] | 271 nM
Cc1ccc(/C=C/c2cc(OCC(C)C)cc(C(=O)Nc3nccs3)c2)cc1 [Example 1, 3-[trans-2-(p-tolyl)vinyl]-5-isobutoxy-N-(thiazol-2-yl)-benzamide] | 164 nM
COC[C@H](C)Oc1cc(CCc2ccc(N)cc2)cc(C(=O)Nc2nccs2)c1 [Example 112, 3-[2-(4-aminophenyl)ethyl]-5-(2-methoxy-(1S)-methyl-ethoxy)-N-(thiazol-2-yl)-benzamide hydrochloride] | 126 nM
3-{2-[3-(3-methyl-butyrylamino)phenyl]ethyl}-5-(2-methoxy-(1S)-methyl-ethoxy)-N-(thiazol-2-yl)-benzamide [Example 120] | 473 nM
3-[2-(3-chlorophenyl)ethyl]-5-(2-methoxy-(1S)-methyl-ethoxy)-N-(1-methyl-1H-pyrazol-3-yl)-benzamide [Example 102] | 264 nM

Continued, values first:

EC50 | Compound
283 nM | 3-[trans-2-(2,5-difluorophenyl)vinyl]-5-(2-methoxy-(1S)-methyl-ethoxy)-N-(pyrazin-2-yl)-benzamide [Example 57]
340 nM | 3-{2-[3-(4-fluorobenzoylamino)phenyl]ethyl}-5-(2-methoxy-(1S)-methyl-ethoxy)-N-(thiazol-2-yl)-benzamide [Example 125]
86.4 nM | 3-[trans-2-(4-fluorophenyl)vinyl]-5-(2-methoxy-(1S)-methyl-ethoxy)-N-(thiazol-2-yl)-benzamide [Example 8]
454 nM | 3-{2-[4-(3-ethyl-thio-ureido)phenyl]ethyl}-5-(2-methoxy-(1S)-methyl-ethoxy)-N-(thiazol-2-yl)-benzamide [Example 146]
301 nM | 3-[trans-2-(2,4-difluorophenyl)vinyl]-5-(2-methoxy-(1S)-methyl-ethoxy)-N-(pyrazin-2-yl)-benzamide [Example 56]
281 nM | 3-[trans-2-(2-methoxyphenyl)vinyl]-5-(2-methoxy-(1S)-methyl-ethoxy)-N-(pyrazin-2-yl)-benzamide [Example 48]
336 nM | 3-[trans-2-(4-nitrophenyl)vinyl]-5-(2-methoxy-(1S)-methyl-ethoxy)-N-(5-fluorothiazol-2-yl)-benzamide [Example 21]
127 nM | 3-[trans-2-(4-nitrophenyl)vinyl]-5-(2-methoxy-(1S)-methyl-ethoxy)-N-(thiazol-2-yl)-benzamide [Example 15]
200 nM | 3-[trans-2-(2,5-difluorophenyl)vinyl]-5-(2-methoxy-(1S)-methyl-ethoxy)-N-(1-methyl-1H-pyrazol-3-yl)-benzamide [Example 36]
231 nM | COC[C@H](C)Oc1cc(/C=C/c2ccc(F)cc2F)cc(C(=O)Nc2ccc(C(=O)OC)cn2)c1 [Example 67, 3-[trans-2-(2,4-difluorophenyl)vinyl]-5-(2-methoxy-(1S)-methyl-ethoxy)-N-(nicotinic acid-3-methyl ester-6-yl)-benzamide]
311 nM | 3-[trans-2-(3,5-dimethoxyphenyl)vinyl]-5-(2-methoxy-(1S)-methyl-ethoxy)-N-(pyrazin-2-yl)-benzamide [Example 50]
346 nM | 3-[trans-2-(2,3-difluorophenyl)vinyl]-5-(2-methoxy-(1S)-methyl-ethoxy)-N-(pyrazin-2-yl)-benzamide [Example 55]
106 nM | COC[C@H](C)Oc1cc(/C=C/c2ccccc2[N+](=O)[O-])cc(C(=O)Nc2ccc(C(=O)OC)cn2)c1 [Example 62, 3-[trans-2-(2-nitrophenyl)vinyl]-5-(2-methoxy-(1S)-methyl-ethoxy)-N-(nicotinic acid-3-methyl ester-6-yl)-benzamide]
208 nM | COC[C@H](C)Oc1cc(CCc2c(F)cccc2F)cc(C(=O)Nc2ccc(C(=O)O)cn2)c1 [Example 109, 3-[2-(2,6-difluorophenyl)ethyl]-5-(2-methoxy-(1S)-methyl-ethoxy)-N-(nicotinic acid-6-yl)-benzamide]
65.6 nM | 3-[trans-2-(2-fluorophenyl)vinyl]-5-(2-methoxy-(1S)-methyl-ethoxy)-N-(5-fluorothiazol-2-yl)-benzamide [Example 22]
270 nM | CCOC(=O)Nc1ccc(CCc2cc(O[C@@H](C)COC)cc(C(=O)Nc3nccs3)c2)cc1 [Example 136, 3-{2-[4-(carbamic acid ethyl ester)phenyl]ethyl}-5-(2-methoxy-(1S)-methyl-ethoxy)-N-(thiazol-2-yl)-benzamide]
245 nM | 3-[trans-2-(4-methoxyphenyl)vinyl]-5-(2-methoxy-(1S)-methyl-ethoxy)-N-(1-methyl-1H-pyrazol-3-yl)-benzamide [Example 41]
14.7 nM | COC[C@H](C)Oc1cc(/C=C/c2c(F)cccc2F)cc(C(=O)Nc2nccs2)c1 [Example 12, 3-[trans-2-(2,6-difluorophenyl)vinyl]-5-(2-methoxy-(1S)-methyl-ethoxy)-N-(thiazol-2-yl)-benzamide]
284 nM | 3-{2-[4-(2-(thiophen-2-yl)acetylamino)phenyl]ethyl}-5-(2-methoxy-(1S)-methyl-ethoxy)-N-(thiazol-2-yl)-benzamide [Example 143]
